We go through one molecule from patent US20240342150A1 (priority 2021, published 2024).

In one assay the test system is SARS-CoV-2 variant D614G. The assay is classed as cell-based.
For the next assay, the system named is SARS-CoV-2 variants. As to the kind of experiment: microbe, parasite or virus in culture. The assay is classed as cell-based.

Consider `O=C(c1ccc(OCCN2CCCCC2)cc1)c1c(-c2ccc(O)cc2)sc2cc(O)ccc12` [Raloxifene, 1-[6-hydroxy-2-(4-hydroxyphenyl)benzo[b]thien-3-yl]-1-[4-[2-(1-piperidinyl)ethoxy]phenyl]methanone], for which the IC50 (usually the concentration that inhibits the measured activity by half) was 7.48 µM in the assay with SARS-CoV-2 variant D614G and 4.5 to 7.99 µM in the assay with SARS-CoV-2 variants (Severe acute respiratory syndrome coronavirus 2, Vero C1008, read-out: IC50 calculated on recovering of cell viability). Further, the “recovery of viability in infected Vero E6 cells” value in the assay on SARS-CoV-2 variants (all the tested viral variants) is given as “able to recover viability”.
